Assay results: patent US20240141372A1, “TRANSGENIC BANANA PLANTS HAVING INCREASED RESISTANCE TO FUSARIUM OXYSPORUM TROPICAL RACE 4 AND METHODS OF PRODUCING SAME” (Elo Life Systems, priority 2022, published 2024)
Residue numbers refer to the chain shown, from its start.

B1: Ma11_p18240.1: LTP antimicrobial protein, Musa acuminata (protein, listed as Musa acuminata)
chain: AIGCGQIISYLIPCLGYAQGTGPLTDGCCSGVRALNGAAQTTPDRQATCNCLKRSAAGVSGIQPGLIAGIPSKCGINVPYRISPSTDCSRVR
B2: Ma09_p21930.1: LTP antimicrobial protein, Musa acuminata (protein, listed as Musa acuminata)
chain: VTCNPLELSPCSSAVLSGARPSAACCAKLKEQQPCFCQYKKNPSLKDYVNSDNGKKALKACGVPIPSC
B3: Ma04_p17240.1: LTP antimicrobial protein, Musa acuminata (protein, listed as Musa acuminata)
chain: ITCSQVYGDLISCVGYLQGGPIKQQCCSGIKSLIAAARTTQDRRTACGCIKTAAAGLSGIDYGRVSQLPGQCGISVSYKISPNVDCSKIN
B4: Ma04_p17190.1: LTP antimicrobial protein, Musa acuminata (protein, listed as Musa acuminata)
chain: B3 chain with Q41K
B5: Ma04_p30830.1: LTP antimicrobial protein, Musa acuminata (protein, listed as Musa acuminata)
chain: ATCNPTELTPCAAAILKSSPPSSLCCSKLKSQAPCFCQYQKNPSLSRYISGGRKVAAACGVPVPSC
B6: Ma04_p17200.1: LTP antimicrobial protein, Musa acuminata (protein, listed as Musa acuminata)
chain: ITCGQVTSALSSCISYATGKGPLSTACCSGVKSLNSAAKTTADRKTACTCIKSTVSRLSGAQAGAIAGIPGKCGVSIGYPISASTDCSKVK
B7: Ma06_p00870.1: snakin antimicrobial protein, Musa acuminata (protein, listed as Musa acuminata)
chain: KDLPAEEFGVSLAEKGHKHKHSGFSEAECPGACQYRCSKTAYKKPCLFFCQKCCFKCRCVPPGTYAHKEVCPCYNNWKTKRGGPKCP

These molecules were tested on Foc_TR4 (assay: In vitro spore germination and mycelial growth assay). Conditions: Foc_TR4 spores, purified Pichia-secreted protein, low ionic strength media, 25° C., A595 at 48 hours; read-out: IC50 (μM, CE fraction).
Format: cell-based, Fusarium oxysporum f.sp. cubense Tropical Race 4

| Molecule | IC50 [µM] |
| --- | --- |
| Ma04_p36140.1: defensin antimicrobial protein, Musa acuminata (RTCESASTRFKGTCVRSSNCASVCQGEGFPDGKCEGVRRRCMCRKPC; listed as Musa acuminata) | 0.84 ± 0.06 |
| Ma06_p21420.1: defensin antimicrobial protein, Musa acuminata (KICRLPSIGFRGPCTSDKNCAKVCRREGFDSGDCEGYTMGCLCNKHC; listed as Musa acuminata) | 3 ± 0.17 |
| Ma08_p13660.1: defensin antimicrobial protein, Musa acuminata (RKCESASHKFKGLCFRASNCANVCKTEGFHGGHCRGLRRRCFCTKHCNSAT; listed as Musa acuminata) | > 25 |
| GB ID: RRT50697.1: defensin antimicrobial protein, Musa acuminata (RTCESASSRFKGTCVRSSNCASVCQGEGFPDGRCEGLRRRCMCRKPC; listed as Musa acuminata) | 0.51 ± 0.01 |
| Ma02_p12840.1: defensin antimicrobial protein, Musa acuminata (RTCESQSHKFVGPCVRKANCGNVCQTEGFHGGVCRGSLIHRKCYCTKNC; listed as Musa acuminata) | 0.86 ± 0.07 |
| Mba02_g12080.1: defensin antimicrobial protein, Musa acuminata, without yeast signal peptide (RTCESQSHKFVGPCVREANCANVCHTEGFHGGVCRGTLIHRKCYCTKNC; listed as Musa acuminata) | 6 ± 0.59 |
| Ma11_p12930.1: defensin antimicrobial protein, Musa acuminata (RVCRYASRSFRGLCFSDTNCAHVCQTEGFNGGHCHGLRRRCMCLRRGC; listed as Musa acuminata) | 0.17 ± 0.006 |
| B1 | 2.25 ± 0.16 |
| B2 | 1.86 ± 0.08 |
| B3 | 1.92 ± 0.13 |
| B4 | 3.47 ± 0.21 |
| B5 | 6.34 ± 0.23 |
| B6 | 2.09 ± 0.06 |
| B7 | > 16 |
